One test concerns the target T1, hEGFR ECD (Homo sapiens, UniProt P00533).
T1 construct: directly immobilized hEGFR extracellular domain (Sino Biological, #10001-H08H); purchased Sino Biological 10001-H08H
Nature of the test: SPR (Biacore T100) on hEGFR extracellular domain. The format is binding.

The test system of test [1] is dual-tropic (R5/X4) HIV-1 HE strain. Nature of the test: HIV infection assay, MT-4 cells + HIV-1 HE. The following applies: Human immunodeficiency virus 1, MT4. The format is cell-based. The text has this: (§1) Viral strains used were the X4 HIV-1 clone NL4.3, R5 HIV-1 strain BaL, or the R5/X4 HIV-1 HE strain. Infection was done in MT-4 cells or phytohemagglutin-stimulated PBMCs from different healthy donors. The CXCR4-using (X4) HIV-1 clone NL4.3 was obtained from the National Institutes of Health NIAID AIDS Reagent program (Bethesda, Md.), the CCR5-using (R5) HIV-1 strain BaL was obtained from the Medical Research Council AIDS reagent project (Herts, UK). The dual-tropic (R5/X4) HIV-1 HE strain was initially isolated from a patient at the University Hospital in Leuven. The MT-4 cells were seeded out in 96-well plate and the U87 cells in 24-well plates. Nanobodies were added at different concentrations together with HIV-1 and the plates were maintained at 37° C. in 10% CO2. Cytopathic effect induced by the virus was monitored by daily microscopic evaluation of the virus-infected cell cultures. […] The absorbance was measured spectrophotometrically at 490 nm with a 96-well plate reader (Molecular Devices, Sunnyvale, Calif.) and compared with four cell control replicates (cells without virus and drugs) and four virus control wells (virus-infected cells without drugs). The IC50, i.e., the drug concentration that inhibits HIV-induced cell death by 50%, was calculated for each polypeptide from the dose-response curve. […]

Test [2] concerns X4 HIV-1 clone NL4.3 (U87 cells). Nature of the test: HIV-1 infection assay, U87 cells + NL4.3. Format: cell-based. To be noted: Human immunodeficiency virus 1, U-87 MG; n = 3; read-out: IC50 (nM) U87 + NL 4.3 (X4).
The test system of a further test is HIV-2 ROD. Kind of test: HIV infection assay, MT-4 cells + HIV-2 ROD. The following applies: Human immunodeficiency virus 2, MT4. The format is cell-based.
From the text: as §1

Test [3] relates to HIV-1 NL4.3 AMD-3100 res. variant. Format: cell-based. To be noted: versus wild-type NL4.3.
In test [4] the test system is X4 HIV-1 clone NL4.3 (PBMCs). Nature of the test: microbe, parasite or virus in culture. Format: cell-based. The following applies: Human immunodeficiency virus 1, PBMC, read-out: IC50 (nM) PBMC + NL 4.3(X4).

On to “EGFR#32: EGFR Nanobody variant 7C12(A1E, E100fS, Q108L)”, for which, in the test with hEGFR ECD, the “hEGFR ECD ka” value was determined as 270000 M⁻¹ s⁻¹ and the “hEGFR ECD kd” value was determined as 0.23 s⁻¹.

For the molecule “EGFR#11: EGFR Nanobody variant 7C12 (A1E, Q108L)”, in the test with hEGFR ECD, the “hEGFR ECD ka” value is 220000 M⁻¹ s⁻¹ and the “hEGFR ECD kd” value was found to be 0.037 s⁻¹.

As to `c1cc(CN2CCCNCCNCCCNCC2)ccc1CN1CCCNCCNCCCNCC1` [AMD3100, reference compound], the half-maximal inhibitory concentration (IC50) was 3.9 nM in test [1], 10 nM in test [2], 21.1 nM in the test on HIV-2 ROD and 1.91 nM in test [4]. For the same molecule, the “loss in potency towards AMD3100 resistant virus” value in test [3] is approximately 100 fold.

These data come from patent US20220242958A1, “BISPECIFIC NANOBODIES” (Ablynx N.V., priority 2013, published 2022).
